From PMC9030691, “Toxicokinetics of β-Amanitin in Mice and In Vitro Drug–Drug Interaction Potential” (Pharmaceutics, 2022)
pIC50: −log10 of the molar value. Entries after “also recorded” stand apart in the source; their conditions may differ. Like-named read-outs stand apart in the source and are kept apart here.

Tests used:
Type in all cases: in vitro ADME
OCT2 = target: T1, OCT2 (Homo sapiens, UniProt O15244); experiment: Uptake of amanitins into HEK293-OCT2 cells; settings: 50 μM amanitin, 5 min, 37 °C, HBSS, 20 min preincubation, with and without cimetidine, LC-HRMS, n = 3
T1 construct: expressed in transfected cells; host or cells: HEK293
T1 sequence (O15244 1-555): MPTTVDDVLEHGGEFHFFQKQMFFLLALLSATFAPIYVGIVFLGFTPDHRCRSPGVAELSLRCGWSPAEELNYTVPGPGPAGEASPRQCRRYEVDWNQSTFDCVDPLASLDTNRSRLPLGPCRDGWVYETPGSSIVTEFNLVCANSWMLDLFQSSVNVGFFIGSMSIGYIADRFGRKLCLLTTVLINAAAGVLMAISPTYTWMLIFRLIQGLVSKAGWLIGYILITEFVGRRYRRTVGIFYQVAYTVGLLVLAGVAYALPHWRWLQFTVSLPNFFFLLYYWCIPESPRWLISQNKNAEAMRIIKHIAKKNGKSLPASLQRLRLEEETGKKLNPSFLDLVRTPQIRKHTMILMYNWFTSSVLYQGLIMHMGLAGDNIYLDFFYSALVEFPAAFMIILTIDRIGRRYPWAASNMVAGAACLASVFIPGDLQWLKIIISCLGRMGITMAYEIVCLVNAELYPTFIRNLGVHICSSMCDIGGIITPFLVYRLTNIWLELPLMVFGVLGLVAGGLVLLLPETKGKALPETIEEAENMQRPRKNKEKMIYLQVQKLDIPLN
Method: (§1) HEK293 cells overexpressing OCT2, MATE2-K, OAT1, OAT3, OATP1B1, and OATP1B3 transporters and HEK293-control cells were maintained in a humidified atmosphere of 5% CO2 at 37 °C in DMEM supplemented with 10% FBS and 5 mM non-essential amino acids. In the case of HEK293-OATP1B1, -OATP1B3, and MATE2-K cells, 2 mM sodium butyrate was added to the culture medium to enhance transport activity. Cells were seeded at 2 × 10^5 cells/well in poly-D-lysine-coated 24-well plates. After 24 h, the growth medium was discarded, and attached cells were washed with HBSS and preincubated for 20 min in HBSS at 37 °C. Stock solutions of α- and β-amanitin and representative inhibitors of transporters were diluted in HBSS to make the final concentration: cimetidine 1 mM (for OCT2), cimetidine 100 μM (for MATE2-K), probenecid 100 μM (for OAT1 and OAT3), and rifampin 100 μM (for OATP1B1 and OATP1B3). Uptake of 50 μM α- and β-amanitin was measured in the absence and presence of representative inhibitors for 5 min at 37 °C. Plates were placed immediately on ice, and cells were then washed twice with 1 mL of ice-cold HBSS. Residual HBSS was removed thoroughly from the plates. Subsequently, 150 μL of 80% methanol containing IS was added to each sample well, and the cell plates were shaken gently for 20 min at 4 °C. The remaining steps were the same as described for plasma sample preparation.

OATP1B1 = target: T2, OATP1B1 (Homo sapiens, UniProt Q9Y6L6); experiment: Uptake of amanitins into HEK293-OATP1B1 cells; settings: 50 μM amanitin, 5 min, 37 °C, HBSS, 20 min preincubation, with and without rifampin 100 μM, LC-HRMS, n = 3
T2 construct: expressed in transfected cells; host or cells: HEK293
Method: as §1

CYP1A2 = target: T3, CYP1A2 (Homo sapiens, UniProt P05177); experiment: CYP1A2 inhibition in human liver microsomes; settings: ultrapooled human liver microsomes 0.2 mg/mL, 50 μM phenacetin, β-amanitin 0.1–100 μM, pH 7.4, 37 °C, 15 min, LC-MS/MS, n = 3, read-out: IC50, CYP1A2 phenacetin O-deethylase
T3 construct: from tissue; host or cells: ultrapooled human liver microsomes
T3 sequence (P05177 1-516): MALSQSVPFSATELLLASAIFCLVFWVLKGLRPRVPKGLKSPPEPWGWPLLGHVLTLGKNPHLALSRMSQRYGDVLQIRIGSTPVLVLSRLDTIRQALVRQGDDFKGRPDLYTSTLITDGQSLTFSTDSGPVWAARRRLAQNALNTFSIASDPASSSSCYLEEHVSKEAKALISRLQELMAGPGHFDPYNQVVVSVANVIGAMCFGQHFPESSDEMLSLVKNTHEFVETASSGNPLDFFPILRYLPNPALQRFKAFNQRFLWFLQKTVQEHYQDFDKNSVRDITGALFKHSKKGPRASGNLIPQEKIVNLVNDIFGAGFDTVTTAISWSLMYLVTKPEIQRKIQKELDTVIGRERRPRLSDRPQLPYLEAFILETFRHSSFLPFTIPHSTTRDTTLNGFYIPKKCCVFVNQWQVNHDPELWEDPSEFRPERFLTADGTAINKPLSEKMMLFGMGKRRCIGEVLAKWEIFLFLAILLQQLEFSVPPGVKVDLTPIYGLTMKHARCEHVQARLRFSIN
Method: β-amanitin inhibition (IC50 values) of CYP1A2, CYP2A6, CYP2B6, CYP2C8, CYP2C9, CYP2C19, CYP2D6, and CYP3A4 enzyme activities in HLMs were evaluated using LC-MS/MS and CYP substrates as previously described. Each incubation mixture was made up to a volume of 100 μL including HLMs (0.2 mg/mL), 50 mM potassium phosphate buffer (pH 7.4), 1.0 mM NADPH, 10 mM magnesium chloride, various concentrations of β-amanitin (0.1–100 μM), a cocktail of seven CYP probe substrates (50 μM phenacetin for CYP1A2, 2.5 μM coumarin for CYP2A6, 2 μM amodiaquine for CYP2C8, 10 μM diclofenac for CYP2C9, 100 μM [S]-mephenytoin for CYP2C19, 5 μM bufuralol for CYP2D6, and 2.5 μM midazolam for CYP3A4 in acetonitrile), or 50 μM bupropion for CYP2B6. The reactions were initiated with NADPH followed by incubation in a shaking water bath at 37 °C for 15 min with or without 30 min preincubation with NADPH. Reactions were stopped with 50 μL of ice-cold methanol containing ^13C2, ^15N-acetaminophen and d9-1′-hydroxybufuralol (ISs). Incubation mixtures were centrifuged at 13,000× g for 8 min at 4 °C. An aliquot (5 μL) of the supernatant from the reaction mixture was analyzed by the previous LC-MS/MS method.

T2 sequence (Q9Y6L6 whole entry): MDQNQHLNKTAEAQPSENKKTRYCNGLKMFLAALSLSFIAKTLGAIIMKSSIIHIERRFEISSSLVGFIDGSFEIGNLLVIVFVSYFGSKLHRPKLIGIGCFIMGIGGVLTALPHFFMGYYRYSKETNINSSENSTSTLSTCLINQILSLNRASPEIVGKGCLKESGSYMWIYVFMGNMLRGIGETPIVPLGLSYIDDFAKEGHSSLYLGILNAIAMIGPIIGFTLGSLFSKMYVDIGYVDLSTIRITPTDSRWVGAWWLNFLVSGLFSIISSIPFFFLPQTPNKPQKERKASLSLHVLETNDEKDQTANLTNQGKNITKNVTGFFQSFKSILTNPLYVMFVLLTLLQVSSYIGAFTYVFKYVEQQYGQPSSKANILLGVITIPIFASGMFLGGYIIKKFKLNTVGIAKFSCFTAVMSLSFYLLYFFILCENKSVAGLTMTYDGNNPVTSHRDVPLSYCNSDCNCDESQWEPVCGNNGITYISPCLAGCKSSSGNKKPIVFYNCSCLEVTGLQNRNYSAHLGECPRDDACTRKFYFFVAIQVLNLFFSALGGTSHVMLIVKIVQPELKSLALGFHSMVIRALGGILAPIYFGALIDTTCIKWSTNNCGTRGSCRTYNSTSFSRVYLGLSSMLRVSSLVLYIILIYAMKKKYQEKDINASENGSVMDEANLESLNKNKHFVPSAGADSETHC

Compound | Uptake into HEK293-OCT2 cells compared with HEK293 control cells (transport substrate) (OCT2) | Uptake into HEK293-OATP1B1 cells compared with HEK293 control cells (transport substrate) (OATP1B1) | pIC50 (CYP1A2; with 30 min NADPH preincubation) | pIC50 (CYP1A2; without NADPH preincubation)
CC[C@H](C)[C@@H]1NC(=O)CNC(=O)[C@@H]2Cc3c([nH]c4cc(O)ccc34)[S@+]([O-])C[C@H](NC(=O)CNC1=O)C(=O)N[C@@H](CC(=O)O)C(=O)N1C[C@H](O)C[C@H]1C(=O)N[C@@H]([C@@H](C)[C@@H](O)CO)C(=O)N2 [β-amanitin] | not involved in the active transport | significantly increased; also recorded: substrate | < 4.00 | < 4.00
α-amanitin [reference compound] | not involved in the active transport | significantly increased | – | –
